Measurements taken from PubChem BioAssay (NCI).
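GI50 marks 50% less growth. TGI: concentration producing complete growth inhibition.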

Experiments:
Assay in all cases: NCI tumour cell line growth inhibition, 384-well format
A549 NSCLC = system: A549 NSCLC
K-562 leukemia = system: K-562 leukemia
NCI-H23 lung = system: NCI-H23 lung
SK-MEL-28 melanoma = system: SK-MEL-28 melanoma
SF-295 CNS = system: SF-295 CNS
T-47D breast = system: T-47D breast
SR leukemia = system: SR leukemia
UO-31 renal = system: UO-31 renal
OVCAR-5 ovarian = system: OVCAR-5 ovarian
MDA-MB-435 melanoma = system: MDA-MB-435 melanoma
MALME-3M melanoma = system: MALME-3M melanoma
TK-10 renal = system: TK-10 renal
UACC-62 melanoma = system: UACC-62 melanoma

Work on `CCNC(=O)c1cc2c(-c3cc(C(C)(C)O)ccc3Oc3c(C)cc(F)cc3C)cn(C)c(=O)c2[nH]1` yielded a GI50 (A549 NSCLC) of 1.51 µM, a TGI (A549 NSCLC) of 12 µM and a GI50 (K-562 leukemia) of 0.879 µM. It also gave a TGI (K-562 leukemia) of 10.7 µM, a GI50 (NCI-H23 lung) of 0.725 µM and a TGI (NCI-H23 lung) of 2.81 µM. It also gave a GI50 (SK-MEL-28 melanoma) of 2.96 µM, a TGI (SK-MEL-28 melanoma) of 15.9 µM and a GI50 (SF-295 CNS) of 3 µM. The TGI (SF-295 CNS) was 11.1 µM, the GI50 (T-47D breast) was 1.31 µM and the TGI (T-47D breast) was 8.3 µM. The GI50 (SR leukemia) was 0.0328 µM, the TGI (SR leukemia) was 1.3 µM and the GI50 (UO-31 renal) was 2.23 µM. It also gave a TGI (UO-31 renal) of 13 µM, a GI50 (OVCAR-5 ovarian) of 1.03 µM and a TGI (OVCAR-5 ovarian) of 9.89 µM. It also gave a GI50 (MDA-MB-435 melanoma) of 5.22 µM, a TGI (MDA-MB-435 melanoma) of 19.1 µM and a GI50 (MALME-3M melanoma) of 1.15 µM. It also gave a TGI (MALME-3M melanoma) of 3.36 µM, a GI50 (TK-10 renal) of 0.366 µM and a TGI (TK-10 renal) of 2.96 µM. It also gave a GI50 (UACC-62 melanoma) of 0.152 µM and a TGI (UACC-62 melanoma) of 4.06 µM.
